According to patent US20240327786A1, “NON-MAMMALIAN AQUATIC ANIMAL CELLS AND EXTRACTS” (Shah Caviar Limited, priority 2021, published 2024):

Tested on: sturgeon suspension cells
Assay: Proliferation of sturgeon suspension cells treated with epigenetic modifiers (cell counts, Neubauer chamber)
Details: exposed once per week

Row | SMILES | proliferation compared to the standard culture | expansion factor (within 6 weeks, 30 μM, 100 μM, 300 μM, 1 mM and 3 mM) | expansion factor (within 4 weeks, 1 μM, 10 μM, 50 μM, 100 μM and 500 μM)
1 | CCCC(CCC)C(=O)O [valproic acid] | increase in proliferation | 8 | –
2 | CCCC(=O)O [butyric acid] | increase in proliferation | – | 16
